From ChEMBL document CHEMBL5338817, “Discovery of Exceptionally Potent, Selective, and Efficacious PROTAC Degraders of CBP and p300 Proteins” (J Med Chem, 2023)

How the values were obtained:
CREB-binding protein [1] = biological target: T1, CREB-binding protein (Homo sapiens, UniProt Q92793); assay: Induction of CBP degradation in human RS4-11 cells incubated for 4 hrs by Western blot assay; assay type: cell-based
RS4-11 [2] = assay: Cytotoxicity against human RS4-11 cells assessed as maximum inhibition of cell growth incubated for 4 days by cellTiter-Glo assay relative to control; assay type: functional; settings: time 4 day
CREB-binding protein [3] = biological target: T1, CREB-binding protein; assay: Induction of CBP degradation in human RS4-11 cells assessed as maximal degradation incubated for 4 hrs by Western blot assay; assay type: cell-based
Target sequence in this assay (Q92793 2-2442 limits assumed): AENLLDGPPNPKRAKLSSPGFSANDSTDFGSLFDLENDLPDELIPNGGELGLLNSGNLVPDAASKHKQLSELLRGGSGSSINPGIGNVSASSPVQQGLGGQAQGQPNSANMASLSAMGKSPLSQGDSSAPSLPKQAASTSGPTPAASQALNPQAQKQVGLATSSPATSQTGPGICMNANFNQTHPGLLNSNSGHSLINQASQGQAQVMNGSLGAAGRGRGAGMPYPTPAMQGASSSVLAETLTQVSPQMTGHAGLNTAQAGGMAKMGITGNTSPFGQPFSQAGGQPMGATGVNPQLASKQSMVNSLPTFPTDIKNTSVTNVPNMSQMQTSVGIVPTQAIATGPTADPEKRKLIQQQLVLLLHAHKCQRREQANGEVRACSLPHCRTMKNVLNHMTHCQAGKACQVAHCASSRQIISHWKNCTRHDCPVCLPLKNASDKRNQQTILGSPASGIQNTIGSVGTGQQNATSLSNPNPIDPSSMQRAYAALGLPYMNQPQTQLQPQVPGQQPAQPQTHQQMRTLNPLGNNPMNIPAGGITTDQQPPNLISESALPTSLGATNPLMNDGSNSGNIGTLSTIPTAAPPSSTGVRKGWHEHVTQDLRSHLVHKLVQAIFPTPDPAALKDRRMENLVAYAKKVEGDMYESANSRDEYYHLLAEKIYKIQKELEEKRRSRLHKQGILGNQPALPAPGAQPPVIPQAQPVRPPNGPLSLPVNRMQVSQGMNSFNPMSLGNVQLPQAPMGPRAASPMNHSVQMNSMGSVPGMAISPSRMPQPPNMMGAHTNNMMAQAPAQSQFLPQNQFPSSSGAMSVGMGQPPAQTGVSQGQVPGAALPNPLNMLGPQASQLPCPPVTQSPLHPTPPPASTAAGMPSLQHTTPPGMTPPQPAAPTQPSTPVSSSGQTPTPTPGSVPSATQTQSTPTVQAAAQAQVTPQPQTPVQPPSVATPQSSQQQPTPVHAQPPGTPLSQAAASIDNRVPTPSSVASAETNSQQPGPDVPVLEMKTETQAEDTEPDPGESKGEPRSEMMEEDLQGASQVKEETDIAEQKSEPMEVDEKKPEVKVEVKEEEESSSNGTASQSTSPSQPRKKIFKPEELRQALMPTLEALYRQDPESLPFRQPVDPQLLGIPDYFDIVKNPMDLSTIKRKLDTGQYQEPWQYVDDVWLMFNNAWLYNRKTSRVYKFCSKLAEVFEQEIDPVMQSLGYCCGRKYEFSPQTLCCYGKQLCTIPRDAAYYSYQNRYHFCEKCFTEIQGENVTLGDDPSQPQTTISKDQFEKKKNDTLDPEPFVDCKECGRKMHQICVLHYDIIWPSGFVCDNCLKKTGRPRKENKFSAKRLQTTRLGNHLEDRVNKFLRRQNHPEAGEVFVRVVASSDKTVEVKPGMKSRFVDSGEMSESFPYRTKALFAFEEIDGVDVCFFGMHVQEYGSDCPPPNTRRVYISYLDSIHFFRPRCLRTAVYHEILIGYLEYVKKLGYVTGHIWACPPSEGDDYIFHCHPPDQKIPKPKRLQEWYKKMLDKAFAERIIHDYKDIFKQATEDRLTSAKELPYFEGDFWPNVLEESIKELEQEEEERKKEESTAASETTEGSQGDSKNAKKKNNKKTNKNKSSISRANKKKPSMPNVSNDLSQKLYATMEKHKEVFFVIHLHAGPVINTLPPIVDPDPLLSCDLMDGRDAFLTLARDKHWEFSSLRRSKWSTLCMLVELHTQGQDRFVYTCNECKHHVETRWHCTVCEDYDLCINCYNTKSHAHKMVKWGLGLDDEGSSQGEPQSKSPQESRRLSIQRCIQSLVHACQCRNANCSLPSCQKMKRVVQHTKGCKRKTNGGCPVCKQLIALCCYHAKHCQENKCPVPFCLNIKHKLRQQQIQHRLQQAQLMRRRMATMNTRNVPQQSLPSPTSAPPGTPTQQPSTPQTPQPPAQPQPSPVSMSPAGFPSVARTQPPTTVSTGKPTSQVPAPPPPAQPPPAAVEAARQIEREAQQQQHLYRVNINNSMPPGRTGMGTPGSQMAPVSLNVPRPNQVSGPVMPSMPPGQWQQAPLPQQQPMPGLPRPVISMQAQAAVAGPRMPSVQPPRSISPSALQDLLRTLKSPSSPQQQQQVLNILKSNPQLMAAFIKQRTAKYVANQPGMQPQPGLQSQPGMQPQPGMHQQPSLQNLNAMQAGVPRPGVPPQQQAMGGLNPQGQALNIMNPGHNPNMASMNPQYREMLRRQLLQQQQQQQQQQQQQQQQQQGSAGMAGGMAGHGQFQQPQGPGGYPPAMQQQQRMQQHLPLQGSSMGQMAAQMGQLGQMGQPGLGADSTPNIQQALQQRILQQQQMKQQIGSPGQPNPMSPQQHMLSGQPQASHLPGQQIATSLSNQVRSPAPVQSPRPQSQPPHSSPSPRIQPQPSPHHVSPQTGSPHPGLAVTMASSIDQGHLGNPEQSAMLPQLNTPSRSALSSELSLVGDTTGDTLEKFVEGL

RS4-11 [4] = assay: Cytotoxicity against human RS4-11 cells assessed as inhibition of cell growth incubated for 4 days by cellTiter-Glo assay; assay type: functional, cell-based; settings: RS4-11, 96 h
[5] = biological target: T2, Histone acetyltransferase p300 (Homo sapiens, UniProt Q09472); assay: Induction of p300 degradation in human RS4-11 cells assessed as maximal degradation incubated for 4 hrs by Western blot assay relative to control; assay type: cell-based
T2 sequence (Q09472 whole entry): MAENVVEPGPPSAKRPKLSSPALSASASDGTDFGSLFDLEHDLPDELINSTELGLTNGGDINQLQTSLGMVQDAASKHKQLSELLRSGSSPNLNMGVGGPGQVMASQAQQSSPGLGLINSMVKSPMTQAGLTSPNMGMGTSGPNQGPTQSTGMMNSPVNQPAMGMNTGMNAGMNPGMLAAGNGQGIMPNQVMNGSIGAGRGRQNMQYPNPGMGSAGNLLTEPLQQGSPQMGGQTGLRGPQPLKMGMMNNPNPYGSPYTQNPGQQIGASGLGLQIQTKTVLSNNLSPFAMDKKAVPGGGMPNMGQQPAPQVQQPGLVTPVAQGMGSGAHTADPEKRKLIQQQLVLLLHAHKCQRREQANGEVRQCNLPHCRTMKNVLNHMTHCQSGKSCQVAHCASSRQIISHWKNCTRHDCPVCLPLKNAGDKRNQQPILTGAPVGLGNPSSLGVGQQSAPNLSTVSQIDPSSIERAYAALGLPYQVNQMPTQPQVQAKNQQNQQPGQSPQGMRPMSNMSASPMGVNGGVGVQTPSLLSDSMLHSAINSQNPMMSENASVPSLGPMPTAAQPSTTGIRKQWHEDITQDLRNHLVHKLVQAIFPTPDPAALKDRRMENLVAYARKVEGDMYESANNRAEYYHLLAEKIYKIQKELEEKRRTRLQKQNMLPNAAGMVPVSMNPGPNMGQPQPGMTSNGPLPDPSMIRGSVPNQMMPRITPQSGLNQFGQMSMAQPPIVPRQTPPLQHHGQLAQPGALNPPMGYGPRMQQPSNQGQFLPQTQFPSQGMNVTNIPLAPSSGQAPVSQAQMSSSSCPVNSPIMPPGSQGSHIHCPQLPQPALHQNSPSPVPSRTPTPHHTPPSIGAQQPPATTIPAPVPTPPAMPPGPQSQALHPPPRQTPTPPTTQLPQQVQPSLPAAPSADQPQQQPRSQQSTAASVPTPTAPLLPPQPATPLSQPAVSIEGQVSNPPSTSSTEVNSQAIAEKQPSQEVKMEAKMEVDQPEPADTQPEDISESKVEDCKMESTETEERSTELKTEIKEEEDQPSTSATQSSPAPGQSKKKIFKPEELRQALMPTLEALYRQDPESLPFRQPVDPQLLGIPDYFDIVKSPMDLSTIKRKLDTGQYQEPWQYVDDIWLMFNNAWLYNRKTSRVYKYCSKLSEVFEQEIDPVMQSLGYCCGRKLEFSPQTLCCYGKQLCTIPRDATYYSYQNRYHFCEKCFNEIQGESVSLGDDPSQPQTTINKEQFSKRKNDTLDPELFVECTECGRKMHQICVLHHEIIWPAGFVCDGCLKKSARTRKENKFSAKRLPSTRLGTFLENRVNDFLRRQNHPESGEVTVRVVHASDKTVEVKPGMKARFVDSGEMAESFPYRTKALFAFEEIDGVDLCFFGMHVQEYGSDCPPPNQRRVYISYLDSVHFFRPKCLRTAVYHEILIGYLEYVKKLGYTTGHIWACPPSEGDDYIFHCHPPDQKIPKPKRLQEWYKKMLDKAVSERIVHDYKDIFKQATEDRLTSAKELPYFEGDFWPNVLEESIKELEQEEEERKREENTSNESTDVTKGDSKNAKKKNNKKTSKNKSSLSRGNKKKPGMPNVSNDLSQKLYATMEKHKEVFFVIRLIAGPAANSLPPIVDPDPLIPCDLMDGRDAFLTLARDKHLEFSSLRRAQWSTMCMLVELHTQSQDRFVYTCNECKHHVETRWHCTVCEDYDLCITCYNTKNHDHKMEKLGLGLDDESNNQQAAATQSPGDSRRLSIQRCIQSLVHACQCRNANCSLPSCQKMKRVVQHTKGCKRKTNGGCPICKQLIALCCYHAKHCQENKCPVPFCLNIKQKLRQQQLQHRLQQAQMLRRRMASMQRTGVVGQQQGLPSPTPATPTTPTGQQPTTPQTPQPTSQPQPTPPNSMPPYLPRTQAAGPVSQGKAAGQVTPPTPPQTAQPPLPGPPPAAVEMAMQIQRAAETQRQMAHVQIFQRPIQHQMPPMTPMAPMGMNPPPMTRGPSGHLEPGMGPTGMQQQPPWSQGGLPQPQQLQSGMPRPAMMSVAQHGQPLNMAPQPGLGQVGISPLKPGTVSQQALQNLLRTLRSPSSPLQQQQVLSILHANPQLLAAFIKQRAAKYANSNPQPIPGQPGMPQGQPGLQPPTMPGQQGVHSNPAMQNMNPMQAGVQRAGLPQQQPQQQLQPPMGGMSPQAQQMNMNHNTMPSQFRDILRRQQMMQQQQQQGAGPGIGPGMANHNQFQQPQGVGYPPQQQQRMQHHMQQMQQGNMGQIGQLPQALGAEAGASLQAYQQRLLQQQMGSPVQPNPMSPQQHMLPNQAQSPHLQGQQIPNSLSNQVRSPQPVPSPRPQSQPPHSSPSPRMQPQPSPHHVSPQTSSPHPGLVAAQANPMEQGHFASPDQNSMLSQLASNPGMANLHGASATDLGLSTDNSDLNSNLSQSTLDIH

[6] = biological target: T2, Histone acetyltransferase p300; assay: Induction of p300 degradation in human RS4-11 cells incubated for 4 hrs by Western blot assay; assay type: cell-based; settings: for DC50: rs4-11

Row | Compound | EC50 (CREB-binding protein [1]) [nM] | Imax (RS4-11 [2]) [%] | Emax (CREB-binding protein [3]) [%] | IC50 (RS4-11 [4]) [nM] | Emax [5] [%] | DC50 [6] [nM] | EC50 [6] [nM]
1 | CC(=O)N1CCc2c(c(-c3cccc4cc(-c5ccc(C(=O)N6CCC(C7CCN(c8cccc9c8C(=O)N(C8CCC(=O)NC8=O)C9=O)CC7)CC6)nc5)ncc34)nn2C2CCOCC2)C1 (stereo unspecified) | 40 | 88 | 58 | 24 | 10 |  | 
2 | CC(=O)N1CCc2c(c(-c3cccc4cc(-c5ccc(C(=O)NCCCNc6ccc7c(c6)CN(C6CCC(=O)NC6=O)C7=O)nc5)ncc34)nn2C2CCOCC2)C1 (stereo unspecified) | < 0.1 | >95 | 99 | 0.1 | 99 | 0.3 | 
3 | CC(=O)N1CCc2c(c(-c3cccc4cc(-c5ccc(C(=O)N6CCN(c7cccc8c7C(=O)N(C7CCC(=O)NC7=O)C8=O)CC6)nc5)ncc34)nn2C2CCOCC2)C1 (stereo unspecified) | 0.2 | 86 | 99 | 0.6 | 99 |  | 1.6
4 | CC(=O)N1CCc2c(c(-c3cccc4cc(-c5ccc(C(=O)NCCCCCc6cccc7c6CN(C6CCC(=O)NC6=O)C7=O)nc5)ncc34)nn2C2CCOCC2)C1 (stereo unspecified) | 0.2 | >95 | 99 | 0.2 | 99 | 0.1 | 
5 | CC(=O)N1CCc2c(c(-c3cccc4cc(-c5ccc(C(=O)N6CC7(CC(Nc8cccc9c8C(=O)N(C8CCC(=O)NC8=O)C9=O)C7)C6)nc5)ncc34)nn2C2CCOCC2)C1 (stereo unspecified) | 0.3 | 85 | 99 | 11 | 95 |  | 1.1
6 | CC(=O)N1CCc2c(c(-c3cccc4cc(-c5ccc(C(=O)NCCCCc6cccc7c6CN(C6CCC(=O)NC6=O)C7=O)nc5)ncc34)nn2C2CCOCC2)C1 (stereo unspecified) | 0.2 | >95 | 80 | 0.1 | 99 | < 0.1 | 
7 | C[C@H](N(Cc1ccc(F)cc1)C(=O)CN1C(=O)O[C@@]2(CCc3cc(NC(=O)CCCCCCCCCCCNc4ccc5c(c4)C(=O)N(C4CCC(=O)NC4=O)C5=O)ccc32)C1=O)C(F)(F)F (stereo partly specified) |  | 99 |  | 91 |  |  | 
8 | CC(=O)N1CCc2c(c(-c3cccc4cc(-c5ccc(C(=O)N6CCC7(CC6)CC(Nc6cccc8c6C(=O)N(C6CCC(=O)NC6=O)C8=O)C7)nc5)ncc34)nn2C2CCOCC2)C1 (stereo unspecified) | 1.7 | 71 | 96 | 51 | 51 |  | 9.3
9 | CC(=O)N1CCc2c(c(-c3cccc4cc(-c5ccc(C(=O)NCCCCCNc6cccc7c6C(=O)N(C6CCC(=O)NC6=O)C7=O)nc5)ncc34)nn2C2CCOCC2)C1 (stereo unspecified) | 1 | >95 | 92 | 2.2 | 95 |  | 0.3
10 | CC(=O)N1CCc2c(c(-c3cccc4cc(-c5ccc(C(=O)NCCCNc6cccc7c6CN(C6CCC(=O)NC6=O)C7=O)nc5)ncc34)nn2C2CCOCC2)C1 (stereo unspecified) | 0.2 | >95 | 98 | 0.1 | 95 | 1.8 | 
11 | CC(=O)N1CCc2c(c(-c3cccc4cc(-c5ccc(C(=O)N6CCC(C7CN(c8cccc9c8C(=O)N(C8CCC(=O)NC8=O)C9=O)C7)CC6)nc5)ncc34)nn2C2CCOCC2)C1 (stereo unspecified) | 3.7 | >95 | 85 | 2.4 | 40 |  | 
12 | CC(=O)N1CCc2c(c(-c3cccc4cc(-c5ccc(C(=O)NCCCCCCCNc6cccc7c6C(=O)N(C6CCC(=O)NC6=O)C7=O)nc5)ncc34)nn2C2CCOCC2)C1 (stereo unspecified) | 12 | 90 | 99 | 1.6 | 87 |  | 2.3
13 | CC(=O)N1CCc2c(c(-c3cccc4cc(-c5ccc(C(=O)N6CC7(CCC(Nc8cccc9c8C(=O)N(C8CCC(=O)NC8=O)C9=O)CC7)C6)nc5)ncc34)nn2C2CCOCC2)C1 (stereo unspecified) | 4.8 | 75 | 81 | 44 | 62 |  | 25
14 | CC(=O)N1CCc2c(c(-c3cccc4cc(-c5ccc(C(=O)NCCNc6ccc7c(c6)CN(C6CCC(=O)NC6=O)C7=O)nc5)ncc34)nn2C2CCOCC2)C1 (stereo unspecified) | 1.1 | >95 | 80 | 0.1 | 73 | 5.1 | 
15 | CC(=O)N1CCc2c(c(-c3cccc4cc(-c5ccc(C(=O)NC6CCN(c7ccc8c(c7)C(=O)N(C7CCC(=O)NC7=O)C8=O)CC6)nc5)ncc34)nn2C2CCOCC2)C1 (stereo unspecified) | 1 | 83 | 99 | 20 | 99 |  | 1.9
16 | CC(=O)N1CCc2c(c(-c3cccc4cc(-c5ccc(C(=O)NCCNc6cccc7c6C(=O)N(C6CCC(=O)NC6=O)C7=O)nc5)ncc34)nn2C2CCOCC2)C1 (stereo unspecified) | 1.7 | 50 | 66 | 196 | 37 |  | 
17 | CC(=O)N1CCc2c(c(-c3cccc4cc(-c5ccc(C(=O)NCCCCCCCCNc6cccc7c6C(=O)N(C6CCC(=O)NC6=O)C7=O)nc5)ncc34)nn2C2CCOCC2)C1 (stereo unspecified) | 0.2 | 87 | 99 | 1.5 | 97 |  | 1.6
18 | CC(=O)N1CCc2c(c(-c3cccc4cc(-c5ccc(C(=O)NCCCCNc6cccc7c6C(=O)N(C6CCC(=O)NC6=O)C7=O)nc5)ncc34)nn2C2CCOCC2)C1 (stereo unspecified) | 1.3 | >95 | 70 | 0.4 | 77 |  | 0.8
19 | CC(=O)N1CCc2c(c(-c3cccc4cc(-c5ccc(C(=O)NCCNc6cccc7c6CN(C6CCC(=O)NC6=O)C7=O)nc5)ncc34)nn2C2CCOCC2)C1 (stereo unspecified) | 0.6 | 85 | 99 | 1.3 | 97 | 1.8 | 
20 | CC(=O)N1CCc2c(c(-c3cccc4cc(-c5ccc(C(=O)NCCCNc6cccc7c6C(=O)N(C6CCC(=O)NC6=O)C7=O)nc5)ncc34)nn2C2CCOCC2)C1 (stereo unspecified) | 1.2 | >95 | 71 | 0.1 | 90 |  | 0.7
21 | CC(=O)N1CCc2c(c(-c3cccc4cc(-c5ccc(C(=O)NCCCc6cccc7c6CN(C6CCC(=O)NC6=O)C7=O)nc5)ncc34)nn2C2CCOCC2)C1 (stereo unspecified) | 3.3 | 95 | 95 | 0.5 | 99 | 0.3 | 
22 | CNC(=O)N1CCc2c(c(N3CCCc4cc(-c5cnn(C)c5)c(C(F)F)cc43)nn2C2CCN(C(=O)CCOCCOCCOCCOCCNc3ccc4c(c3)C(=O)N(C3CCC(=O)NC3=O)C4=O)CC2)C1 (stereo unspecified) |  | 89 |  | 4.8 |  |  | 
23 | CC(=O)N1CCc2c(c(-c3cccc4cc(-c5ccc(C(=O)NCCCCCCNc6cccc7c6C(=O)N(C6CCC(=O)NC6=O)C7=O)nc5)ncc34)nn2C2CCOCC2)C1 (stereo unspecified) | 0.6 | 80 | 99 | 0.3 | 87 |  | 0.6
24 | CC(=O)N1CCc2c(c(-c3cccc4cc(-c5ccc(C(=O)N6CCC(Nc7cccc8c7C(=O)N(C7CCC(=O)NC7=O)C8=O)CC6)nc5)ncc34)nn2C2CCOCC2)C1 (stereo unspecified) | 1.8 | 70 | 86 | 68 | 25 |  | 
25 | CC(=O)N1CCc2c(c(-c3cccc4cc(-c5ccc(C(=O)N6CCC7(CCC(Nc8cccc9c8C(=O)N(C8CCC(=O)NC8=O)C9=O)CC7)CC6)nc5)ncc34)nn2C2CCOCC2)C1 (stereo unspecified) |  | 65 | 21 | 70 | 10 |  | 
